Reference: patent publication US20190142810A1, “MITOCHONDRIAL INHIBITORS FOR THE TREATMENT OF PROLIFERATION DISORDERS” (Basilea Pharmaceutica International AG, priority 2016, published 2019)

Tests used:
Format in all cases: cell-based
[1] = tested on: HeLa galactose cells; assay: Cell growth and proliferation assay of HeLa galactose cells (crystal violet); details: Homo sapiens, HeLa, 72 h, 72 hours incubation, crystal violet staining, absorbance at 590 nm
Outline: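 HeLa cells adapted stepwise over three weeks to glucose-free galactose medium plus 10 mM galactose, seeded at 2000 cells/well and treated 72 h with compounds (0.001% DMSO) at 37° C. Growth read by crystal violet staining, dye solubilized and absorbance at 590 nm; IC50 from concentration-response curves.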

[2] = tested on: Oxygen consumption (mitochondrial function); assay: Oxygen consumption assay (MitoXpress probe); details: 5 h, MitoXpress probe signal, kinetic analysis at 37° C. for 5 hours, compared to untreated cells
Outline: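 Cells seeded at 50′000/well, after 24 h given fresh media with inhibitor at a range of concentrations, then MitoXpress probe under mineral oil. Kinetic TRF read (380 nm excitation, 650 or 665 nm emission) at 37° C. for 5 hours. IC50 = concentration inhibiting 50% of probe signal versus untreated cells.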

[3] = tested on: HeLa glucose versus HeLa galactose cells; assay: Cell growth assays (crystal violet) in HeLa galactose and HeLa glucose cells; details: FIG. 1, crystal violet cell growth assay
Experimental: The cervical tumor cell line HeLa (ATCC, CCL-2) was cultivated in DMEM medium (Invitrogen cat. no. 11971, 4.5 g/L high glucose) containing 10% fetal calf serum (Sigma cat. no. F9665) and 1% Penicillin/Streptomycin (Sigma cat. no. P0781) at 37° C. in 5% CO2. HeLa galactose cells (i.e. HeLa cells that grow in high concentrations of galactose) were generated from HeLa glucose cells (i.e. HeLa cells that grow in high concentrations of glucose) by gradually changing the amount of glucose in the media to zero glucose in the presence of galactose as a sugar source (50% galactose/50% glucose media for one week, then 75% galactose/25% glucose media for one week, to 100% galactose media in the third week). Galactose media (Invitrogen cat. no. 11966) was supplemented with 10 mM galactose (Sigma cat. no. G5388).
Cell Growth and Proliferation Assay of HeLa Galactose and Glucose Cells
HeLa galactose cells and HeLa glucose cells were seeded in 96 well plates (TPP, cat. no 92696) at 2000 and 1500 cells/well, respectively, in 100 μL of complete medium. […] Absorbance at 590 nm was measured using a SpectraMax® 250 plate reader (Molecular Devices). Antiproliferative/growth inhibition IC50s were calculated from concentration-response curves using GraphPad Prism software. […]

Molecule | IC50 [1] [nM] | IC50 [2] [nM] | differential sensitivity in HeLa glucose versus HeLa galactose cell growth [3]
Cc1nsc(NC(=O)N2CCC(=Cc3c(F)cc(C(F)(F)F)cc3F)CC2)n1 [Example 41, 4-[[2,6-difluoro-4-(trifluoromethyl)phenyl]methylene]-N-(3-methyl-1,2,4-thiadiazol-5-yl)piperidine-1-carboxamide] | 23 | 41 | exhibit differential sensitivity
Cc1nsc(NC(=O)N2CCC(=Cc3ccc(N4CCCC4)cc3F)CC2)n1 [Example 45, 4-[(2-fluoro-4-pyrrolidin-1-yl-phenyl)methylene]-N-(3-methyl-1,2,4-thiadiazol-5-yl)piperidine-1-carboxamide] | 284 | 440 | 
Antimycin A |  |  | differential sensitivity in HeLa glucose versus HeLa galactose cell growth is exhibited
Cc1nsc(NC(=O)N2CCC(Oc3ccc(OC(F)(F)F)cc3)CC2)n1 [Example 56] | 736 | 1250 | 
Cc1nsc(NC(=O)N2CCC(Cc3ccc(Cl)cc3Cl)CC2)n1 [Example 8] | 32 | 200 | 
Cc1nsc(NC(=O)N2CCC(Cc3ncc(Cl)cc3F)CC2)n1 [Example 62] | 57 | 122 | 
Cc1nsc(NC(=O)N2CCCC(Cc3ccc(C(F)(F)F)cc3F)CC2)n1 (stereo not drawn) [Example 120, 4-[[2-fluoro-4-(trifluoromethyl)phenyl]methyl]-N-(3-methyl-1,2,4-thiadiazol-5-yl)azepane-1-carboxamide] | 32 | 54 | 
Cc1cc(NC(=O)N2CCC(C(=O)c3ccc(C(F)(F)F)cc3F)CC2)ccn1 [Example 143] | 43 | 103 | 
Cc1nsc(NC(=O)N2CCC(C(=O)c3ccc(Cl)cc3F)CC2)n1 [Example 92, 4-(4-chloro-2-fluoro-benzoyl)-N-(3-methyl-1,2,4-thiadiazol-5-yl)piperidine-1-carboxamide] | 57 | 62 | 
Cc1nccc(NC(=O)N2CCC(Cc3ccc(Cl)cc3F)CC2)n1 [Example 71] | 227 | 338 | 
Cc1nsc(NC(=O)N2CCC(Cc3ccc(Cl)cc3F)CC2)n1 [Example 9] | 36 | < 100 | 
Cc1nsc(NC(=O)N2CCC(Cc3ccc(N(C)C)cc3F)CC2)n1 [Example 46] | 47 | 129 | 
Cc1nsc(NC(=O)N2CCCC(=Cc3c(F)cc(Cl)cc3F)CC2)n1 [Example 114] | 19 | 65 | 
Cc1nsc(NC(=O)N2CCC(Cc3ccc(C(F)(F)F)cc3)CC2)n1 [Example 10] | 36 | 200 | 
Cc1nsc(NC(=O)N2CCC(C(=O)c3ccc(Br)cc3)CC2)n1 [Example 77, 4-(4-bromobenzoyl)-N-(3-methyl-1,2,4-thiadiazol-5-yl)piperidine-1-carboxamide] | 48 | 54 | 
Cc1nsc(NC(=O)N2CCC(Cc3c(F)cc(O)cc3F)CC2)n1 [Example 100] | 200 | 402 | 
Cc1nsc(NC(=O)N2CCC(=Cc3ccc(N(C)CCO)cc3F)CC2)n1 [Example 110] | 66 | 151 | 
Cc1nsc(NC(=O)N2CCC(Cc3ccc(C#N)cc3F)CC2)n1 [Example 32] | 43 | 116 | 
Cc1cc(NC(=O)N2CCC(C(=O)c3c(F)cc(C(F)(F)F)cc3F)CC2)ccn1 [Example 173] | 54 | 136 | 
Cc1nsc(NC(=O)N2CCC(Cc3ccc(F)cc3)CC2)n1 [Example 1, 1-Piperidinecarboxamide, 4-[(4-fluorophenyl)methyl]-N-(3-methyl-1,2,4-thiadiazol-5-yl)-] | 161 | 193 | 
CCc1cc(NC(=O)N2CCC(=Cc3ccc(Cl)cc3F)CC2)ccn1 [Example 144, 4-[(4-chloro-2-fluoro-phenyl)methylene]-N-(2-ethyl-4-pyridyl)piperidine-1-carboxamide] | 8 | 53 | 
CCc1ccc(CC2CCN(C(=O)Nc3nc(C)ns3)CC2)cc1 [Example 17] | 162 | 243 | 
Cc1ccc(OC2CCN(C(=O)Nc3nc(C)ns3)CC2)cc1 [Example 18] | 637 | 515 | 
Cc1nsc(NC(=O)N2CCC(=Cc3c(F)cc(N(C)CCO)cc3F)CC2)n1 [Example 158, 4-[[2,6-difluoro-4-[2-hydroxyethyl(methyl)amino]phenyl]methylene]-N-(3-methyl-1,2,4-thiadiazol-5-yl)piperidine-1-carboxamide] | 28 | 40 | 
COc1ccc(CC2CCN(C(=O)Nc3nc(C)ns3)CC2)cc1 [Example 3] | 80 | < 100 | 
Cc1nsc(NC(=O)N2CCC(=Cc3ccc(Cl)cc3F)CC2)n1 [Example 39, 4-[(4-chloro-2-fluoro-phenyl)methylene]-N-(3-methyl-1,2,4-thiadiazol-5-yl)piperidine-1-carboxamide] | 38 | 69 | 
Cc1nsc(NC(=O)N2CCC(Cc3ccc(-c4noc(C)n4)cc3F)CC2)n1 [Example 35, 4-[[2-fluoro-4-(5-methyl-1,2,4-oxadiazol-3-yl)phenyl]methyl]-N-(3-methyl-1,2,4-thiadiazol-5-yl)piperidine-1-carboxamide] | 240 | 473 | 
